Reference: ChEMBL document CHEMBL4507286 (2021)
Calls of active or inactive are those of the source. The calls are words filed in the database; no cut-off is given here.

How the values were obtained:
[1] = target: T1, Cyclin-dependent kinase 7 (Homo sapiens, UniProt P50613); assay: Inhibition of CDK7 at compound concentration of 10.0 uM using the ScanMax (DiscoverX)
[2] = target: Dual specificity protein kinase CLK4 (Homo sapiens, UniProt Q9HAZ1); assay: Inhibition of CLK4 at compound concentration of 10.0 uM using the ScanMax (DiscoverX)
[3] = target: G protein-coupled receptor kinase 3 (Homo sapiens, UniProt P35626); assay: Inhibition of GRK3 at compound concentration of 10.0 uM using the ScanMax (DiscoverX)
[4] = target: Serine/threonine-protein kinase haspin (Homo sapiens, UniProt Q8TF76); assay: Inhibition of GSG2 at compound concentration of 10.0 uM using the ScanMax (DiscoverX)
[5] = target: Serine/threonine-protein kinase ULK1 (Homo sapiens, UniProt O75385); assay: Inhibition of ULK1 at compound concentration of 10.0 uM using the ScanMax (DiscoverX)
[6] = target: T2, Mitogen-activated protein kinase 1 (Homo sapiens, UniProt P28482); assay: Invitrogen kinase screen (MAPK1)
[7] = target: T2, Mitogen-activated protein kinase 1; assay: Cell Assay: Inhibition of RSK phosphorylation (pRSK A375SM); type: cell-based, A375-SM
[8] = target: T2, Mitogen-activated protein kinase 1; assay: Cell Assay: Inhibition of RSK phosphorylation (pRSK with 40% mouse serum )
[9] = target: T2, Mitogen-activated protein kinase 1; assay: Cell Assay: Inhibition of RSK phosphorylation (pRSK with 40% human serum)
[10] = NanoBRET (MAPK1, SGC Frankfurt); conditions: Homo sapiens
[11] = NanoBRET (MAPK3, SGC Frankfurt); conditions: Homo sapiens
[12] = target: Glycogen synthase kinase-3 alpha (Homo sapiens, UniProt P49840); assay: Invitrogen kinase screen (GSK3A)
[13] = target: Serine/threonine-protein kinase Sgk1 (Homo sapiens, UniProt O00141); assay: Invitrogen kinase screen (SGK)
[14] = target: Glycogen synthase kinase-3 beta (Homo sapiens, UniProt P49841); assay: Invitrogen kinase screen (GSK3B)
[15] = target: Serine/threonine-protein kinase TBK1 (Homo sapiens, UniProt Q9UHD2); assay: Invitrogen kinase screen (TBK1)
[16] = target: Cyclin-dependent kinase 2 (Homo sapiens, UniProt P24941); assay: Invitrogen kinase screen (CDK2)
[17] = target: Serine/threonine-protein kinase 26 (Homo sapiens, UniProt Q9P289); assay: Invitrogen kinase screen (STK26)
[18] = target: Dual specificity protein kinase CLK2 (Homo sapiens, UniProt P49760); assay: Invitrogen kinase screen (CLK2)
[19] = target: cGMP-dependent protein kinase 2 (Homo sapiens, UniProt Q13237); assay: Invitrogen kinase screen (PRKG2)
[20] = target: Cyclin-dependent kinase 5 (Homo sapiens, UniProt Q00535); assay: Invitrogen kinase screen (CDK5)
[21] = target: Serine/threonine-protein kinase MARK2 (Homo sapiens, UniProt Q7KZI7); assay: Invitrogen kinase screen (MARK2)
[22] = target: T2, Mitogen-activated protein kinase 1
[23] = target: T1, Cyclin-dependent kinase 7
[24] = target: Casein kinase I isoform alpha-like (Homo sapiens) (UniProt Q8N752)
[25] = tested on: Receptor-type tyrosine-protein kinase FLT3 (Homo sapiens), P36888 [R834Q]
[26] = target: Serine/threonine-protein kinase ICK (Homo sapiens) (UniProt Q9UPZ9)
[27] = target: cAMP-dependent protein kinase catalytic subunit beta (Homo sapiens) (UniProt P22694)
[28] = target: Membrane-associated tyrosine- and threonine-specific cdc2-inhibitory kinase (Homo sapiens) (UniProt Q99640)
[29] = target: Serine/threonine-protein kinase D2 (Homo sapiens) (UniProt Q9BZL6)
[30] = target: 5-hydroxytryptamine receptor 1B (Homo sapiens) (UniProt P28222); conditions: Compound concentration 10.0 uM
[31] = target: 5-hydroxytryptamine receptor 6 (Homo sapiens) (UniProt P50406); conditions: Compound concentration 10.0 uM
[32] = target: Sodium-dependent dopamine transporter (Homo sapiens) (UniProt Q01959); conditions: Compound concentration 10.0 uM
[33] = target: Beta-2 adrenergic receptor (Homo sapiens) (UniProt P07550); conditions: Compound concentration 10.0 uM
[34] = target: Muscarinic acetylcholine receptor M1 (Homo sapiens) (UniProt P11229); conditions: Compound concentration 10.0 uM
[35] = target: 5-hydroxytryptamine receptor 2B (Homo sapiens, UniProt P41595); assay: GPCRScan assay: inhibition of 5-HT2B; parameters: radioligand conc. used [nm] 1.0 – 2.0, parental cells stable HEK
[36] = target: 5-hydroxytryptamine receptor 1E (Homo sapiens) (UniProt P28566); conditions: Compound concentration 10.0 uM
[37] = target: D(2) dopamine receptor (Homo sapiens) (UniProt P14416); conditions: Compound concentration 10.0 uM
[38] = target: Delta-type opioid receptor (Homo sapiens) (UniProt P41143); conditions: Compound concentration 10.0 uM
[39] = target: GABA-A receptor; anion channel (Rattus norvegicus) (UniProt O09028+P15431+P18506+P18508+P19969+P20236+P23574+P23576+P28471+P28473+P30191+P62813+P63079+P63138+Q91ZM7+Q9ES14); conditions: Compound concentration 10.0 uM
[40] = target: Alpha-1D adrenergic receptor (Homo sapiens) (UniProt P25100); conditions: Compound concentration 10.0 uM
[41] = target: Sigma intracellular receptor 2 (Homo sapiens) (UniProt Q5BJF2); conditions: Compound concentration 10.0 uM
[42] = target: Sigma non-opioid intracellular receptor 1 (Homo sapiens) (UniProt Q99720); conditions: Compound concentration 10.0 uM
[43] = Compound concentration 100.0 nM
[44] = Compound concentration 1000.0 nM

T2 sequence (P28482 whole entry): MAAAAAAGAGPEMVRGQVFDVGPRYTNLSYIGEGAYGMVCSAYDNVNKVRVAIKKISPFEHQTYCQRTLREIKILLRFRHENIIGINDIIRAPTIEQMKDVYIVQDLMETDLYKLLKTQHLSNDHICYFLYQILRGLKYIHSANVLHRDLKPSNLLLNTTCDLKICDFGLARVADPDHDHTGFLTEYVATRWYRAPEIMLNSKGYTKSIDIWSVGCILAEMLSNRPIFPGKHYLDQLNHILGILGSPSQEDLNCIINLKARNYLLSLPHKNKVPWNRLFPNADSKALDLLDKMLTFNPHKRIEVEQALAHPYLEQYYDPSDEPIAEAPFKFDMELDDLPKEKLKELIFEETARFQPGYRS
T1 sequence (P50613 whole entry): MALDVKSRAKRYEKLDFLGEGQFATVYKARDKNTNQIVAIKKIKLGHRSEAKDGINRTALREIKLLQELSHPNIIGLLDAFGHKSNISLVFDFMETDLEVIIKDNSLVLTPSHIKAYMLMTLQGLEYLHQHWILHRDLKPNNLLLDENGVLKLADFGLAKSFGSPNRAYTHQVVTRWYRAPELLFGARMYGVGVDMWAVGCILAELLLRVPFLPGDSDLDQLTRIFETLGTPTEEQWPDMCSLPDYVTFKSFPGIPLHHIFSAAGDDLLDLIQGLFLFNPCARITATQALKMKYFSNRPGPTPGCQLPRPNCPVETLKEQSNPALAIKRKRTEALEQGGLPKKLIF
Sequence of Casein kinase I isoform alpha-like (Homo sapiens) (Q8N752 whole entry, canonical isoform): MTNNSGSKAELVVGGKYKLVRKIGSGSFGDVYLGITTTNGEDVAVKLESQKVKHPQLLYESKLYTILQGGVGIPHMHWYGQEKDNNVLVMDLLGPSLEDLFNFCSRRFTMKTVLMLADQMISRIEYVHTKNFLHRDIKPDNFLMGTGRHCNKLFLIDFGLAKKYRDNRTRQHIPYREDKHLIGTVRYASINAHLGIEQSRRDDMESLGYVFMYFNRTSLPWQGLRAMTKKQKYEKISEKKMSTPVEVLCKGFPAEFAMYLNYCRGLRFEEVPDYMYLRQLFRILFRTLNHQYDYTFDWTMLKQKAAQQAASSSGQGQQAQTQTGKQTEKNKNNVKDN
Sequence of Serine/threonine-protein kinase D2 (Homo sapiens) (Q9BZL6 whole entry): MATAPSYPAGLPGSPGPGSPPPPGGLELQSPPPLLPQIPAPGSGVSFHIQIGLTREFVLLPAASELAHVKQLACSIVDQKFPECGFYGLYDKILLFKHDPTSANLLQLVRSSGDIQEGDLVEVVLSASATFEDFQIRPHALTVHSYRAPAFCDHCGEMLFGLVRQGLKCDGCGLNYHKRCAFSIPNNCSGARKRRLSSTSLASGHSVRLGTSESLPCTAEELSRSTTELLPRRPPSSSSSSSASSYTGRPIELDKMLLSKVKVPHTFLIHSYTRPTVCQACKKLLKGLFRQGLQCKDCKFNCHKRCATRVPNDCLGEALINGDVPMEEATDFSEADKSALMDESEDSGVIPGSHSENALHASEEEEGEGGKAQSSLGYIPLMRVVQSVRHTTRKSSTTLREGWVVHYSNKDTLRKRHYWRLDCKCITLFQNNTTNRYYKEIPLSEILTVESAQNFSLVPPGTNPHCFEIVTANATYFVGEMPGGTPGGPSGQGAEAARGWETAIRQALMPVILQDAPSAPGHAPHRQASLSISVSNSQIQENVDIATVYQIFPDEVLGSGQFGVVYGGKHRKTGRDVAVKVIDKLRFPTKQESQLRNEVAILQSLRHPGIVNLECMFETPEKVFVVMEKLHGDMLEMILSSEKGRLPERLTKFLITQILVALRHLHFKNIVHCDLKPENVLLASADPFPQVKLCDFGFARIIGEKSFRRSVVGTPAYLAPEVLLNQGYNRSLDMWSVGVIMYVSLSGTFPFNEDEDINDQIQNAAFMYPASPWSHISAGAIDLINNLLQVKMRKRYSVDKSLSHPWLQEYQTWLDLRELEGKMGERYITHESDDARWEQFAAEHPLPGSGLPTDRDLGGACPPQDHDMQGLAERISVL
Sequence of Sodium-dependent dopamine transporter (Homo sapiens) (Q01959 whole entry): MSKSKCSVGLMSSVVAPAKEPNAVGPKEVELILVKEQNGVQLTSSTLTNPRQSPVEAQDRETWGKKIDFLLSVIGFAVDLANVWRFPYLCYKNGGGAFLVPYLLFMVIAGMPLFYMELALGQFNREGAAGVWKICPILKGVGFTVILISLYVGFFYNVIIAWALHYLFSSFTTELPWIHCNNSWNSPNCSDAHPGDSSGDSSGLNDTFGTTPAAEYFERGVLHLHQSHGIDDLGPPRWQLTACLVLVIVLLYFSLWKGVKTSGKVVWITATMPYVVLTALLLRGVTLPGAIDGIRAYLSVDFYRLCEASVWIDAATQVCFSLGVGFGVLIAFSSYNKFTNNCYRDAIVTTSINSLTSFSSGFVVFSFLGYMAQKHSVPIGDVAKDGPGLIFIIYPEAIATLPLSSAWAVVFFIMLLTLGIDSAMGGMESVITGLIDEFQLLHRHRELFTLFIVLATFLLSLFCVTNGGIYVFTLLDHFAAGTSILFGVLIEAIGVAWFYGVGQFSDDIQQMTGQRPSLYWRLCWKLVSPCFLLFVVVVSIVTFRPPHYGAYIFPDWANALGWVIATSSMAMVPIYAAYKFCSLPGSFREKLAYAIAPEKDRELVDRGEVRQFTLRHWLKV
Sequence of Membrane-associated tyrosine- and threonine-specific cdc2-inhibitory kinase (Homo sapiens) (Q99640 whole entry): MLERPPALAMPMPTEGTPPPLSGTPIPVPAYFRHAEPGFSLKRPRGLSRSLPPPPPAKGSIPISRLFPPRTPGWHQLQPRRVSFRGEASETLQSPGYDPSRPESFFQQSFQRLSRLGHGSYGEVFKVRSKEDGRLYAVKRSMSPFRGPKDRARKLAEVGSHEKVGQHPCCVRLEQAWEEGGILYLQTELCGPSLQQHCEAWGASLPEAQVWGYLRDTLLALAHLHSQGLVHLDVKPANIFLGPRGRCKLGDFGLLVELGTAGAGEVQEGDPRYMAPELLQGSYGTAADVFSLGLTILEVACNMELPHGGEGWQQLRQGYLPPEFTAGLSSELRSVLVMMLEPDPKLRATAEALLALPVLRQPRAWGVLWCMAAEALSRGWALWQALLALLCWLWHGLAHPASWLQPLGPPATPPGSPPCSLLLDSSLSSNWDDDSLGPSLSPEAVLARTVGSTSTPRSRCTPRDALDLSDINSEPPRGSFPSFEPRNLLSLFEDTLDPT
Sequence of Serine/threonine-protein kinase ICK (Homo sapiens) (Q9UPZ9 whole entry): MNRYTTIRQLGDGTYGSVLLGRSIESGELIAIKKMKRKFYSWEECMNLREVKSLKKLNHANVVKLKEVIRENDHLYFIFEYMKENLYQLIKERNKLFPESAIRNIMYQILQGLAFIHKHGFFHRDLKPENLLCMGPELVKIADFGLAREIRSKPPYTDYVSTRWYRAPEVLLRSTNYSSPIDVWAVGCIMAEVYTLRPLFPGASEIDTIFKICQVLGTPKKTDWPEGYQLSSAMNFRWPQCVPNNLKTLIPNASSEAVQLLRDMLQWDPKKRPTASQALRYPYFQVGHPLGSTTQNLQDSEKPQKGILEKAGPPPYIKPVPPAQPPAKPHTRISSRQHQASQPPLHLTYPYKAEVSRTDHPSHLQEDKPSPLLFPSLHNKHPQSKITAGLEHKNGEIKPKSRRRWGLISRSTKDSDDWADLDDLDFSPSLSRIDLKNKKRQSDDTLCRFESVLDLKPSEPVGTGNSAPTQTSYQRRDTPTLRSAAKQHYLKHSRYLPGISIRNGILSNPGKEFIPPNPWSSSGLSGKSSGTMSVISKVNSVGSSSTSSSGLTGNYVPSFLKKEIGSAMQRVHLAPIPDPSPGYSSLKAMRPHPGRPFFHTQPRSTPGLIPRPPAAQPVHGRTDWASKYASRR
Sequence of G protein-coupled receptor kinase 3 (P35626 whole entry): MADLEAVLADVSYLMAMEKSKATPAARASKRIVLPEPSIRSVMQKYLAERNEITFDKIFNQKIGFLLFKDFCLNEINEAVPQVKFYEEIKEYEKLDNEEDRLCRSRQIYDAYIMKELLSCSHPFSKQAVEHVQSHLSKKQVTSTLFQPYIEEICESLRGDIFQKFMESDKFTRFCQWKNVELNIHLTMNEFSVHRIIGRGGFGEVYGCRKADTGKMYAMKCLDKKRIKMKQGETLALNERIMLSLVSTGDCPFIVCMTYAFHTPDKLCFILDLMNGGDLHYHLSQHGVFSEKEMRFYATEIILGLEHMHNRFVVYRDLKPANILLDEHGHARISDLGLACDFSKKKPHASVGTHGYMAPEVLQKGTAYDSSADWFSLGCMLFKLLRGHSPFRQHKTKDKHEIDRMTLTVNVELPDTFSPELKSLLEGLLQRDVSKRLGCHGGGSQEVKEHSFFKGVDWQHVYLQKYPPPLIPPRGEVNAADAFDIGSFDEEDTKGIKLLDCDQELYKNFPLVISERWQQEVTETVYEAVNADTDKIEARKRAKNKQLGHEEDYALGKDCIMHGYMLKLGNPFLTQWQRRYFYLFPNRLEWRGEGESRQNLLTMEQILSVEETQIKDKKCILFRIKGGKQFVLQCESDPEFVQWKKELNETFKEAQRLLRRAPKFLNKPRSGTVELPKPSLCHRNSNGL
Sequence of 5-hydroxytryptamine receptor 1E (Homo sapiens) (P28566 whole entry): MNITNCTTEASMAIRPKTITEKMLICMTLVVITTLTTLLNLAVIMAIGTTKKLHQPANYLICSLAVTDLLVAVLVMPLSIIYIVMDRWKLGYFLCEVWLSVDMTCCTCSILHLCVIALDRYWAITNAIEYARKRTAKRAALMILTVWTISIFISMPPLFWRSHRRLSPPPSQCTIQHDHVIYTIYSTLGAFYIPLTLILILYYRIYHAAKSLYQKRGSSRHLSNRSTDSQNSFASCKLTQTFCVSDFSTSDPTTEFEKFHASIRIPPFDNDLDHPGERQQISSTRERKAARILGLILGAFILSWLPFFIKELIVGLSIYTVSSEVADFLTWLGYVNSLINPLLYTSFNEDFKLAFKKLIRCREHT
Sequence of Sigma non-opioid intracellular receptor 1 (Homo sapiens) (Q99720 whole entry): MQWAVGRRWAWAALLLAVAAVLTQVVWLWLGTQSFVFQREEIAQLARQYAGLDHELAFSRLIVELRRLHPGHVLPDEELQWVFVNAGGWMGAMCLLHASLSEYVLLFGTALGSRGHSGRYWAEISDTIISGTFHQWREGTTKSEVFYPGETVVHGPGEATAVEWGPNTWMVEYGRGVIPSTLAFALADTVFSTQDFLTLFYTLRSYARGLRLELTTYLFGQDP

C[C@@H](NC(=O)Nc1cc2[nH]ncc2c(CO)n1)c1ccccc1 [ERKi]
Kd [1]: 0.23 µM (not active) | Kd [2]: 0.23 µM (not active) | Kd [3]: 0.14 µM (not active) | Kd [4]: 0.13 µM (not active) | Kd [5]: 0.14 µM (not active) | IC50 [6]: 0.004 µM (active) | IC50 [7]: 0.28 µM (active) | IC50 [8]: 0.788 µM (active) | IC50 [9]: 0.225 µM (active) | EC50 [10]: 0.095 µM (active) | IC50 [10]: 0.85 µM (active) | EC50 [11]: 0.032 µM (active) | IC50 [11]: 6.69 µM | IC50 [12]: 0.21 µM (not active) | IC50 [13]: 0.27 µM (not active) | IC50 [14]: 0.54 µM (not active) | IC50 [15]: 0.77 µM (not active) | IC50 [16]: 0.79 µM (not active) | IC50 [17]: 0.88 µM (not active) | IC50 [18]: 0.94 µM (not active) | IC50 [19]: 0.95 µM (not active) | IC50 [20]: 1.2 µM (not active) | IC50 [21]: 1.4 µM (not active) | Kd [22]: 0.0048 µM (active) | residual activity [23, 43]: 73.6% | residual activity [24, 43]: 79.8% | residual activity [25, 43]: 56.8% | residual activity [26, 43]: 80.9% | residual activity [27, 43]: 77% | residual activity [28, 43]: 99.6% | residual activity [29, 43]: 97.5% | inhibition [30]: 4.23% | inhibition [31]: 8.67% | inhibition [32]: 46.5% | inhibition [33]: 1.36% | inhibition [34]: -1.16%

C[C@H](NC(=O)Nc1cc2[nH]ncc2c(CO)n1)c1ccccn1 [ERKi-NC]
Ki [35]: 0.538 µM | residual activity [23, 44]: 100% | residual activity [24, 44]: 100% | residual activity [25, 44]: 94.5% | residual activity [26, 44]: 71.4% | residual activity [27, 44]: 91.5% | residual activity [28, 44]: 100% | residual activity [29, 44]: 100% | inhibition [36]: -8.44% | inhibition [37]: 17.7% | inhibition [32]: 4.79% | inhibition [38]: 2.71% | inhibition [39]: 25.5% | inhibition [40]: -7.9% | inhibition [41]: 20.8% | inhibition [42]: 12.8%
